# Entries after “also recorded” stand apart in the source; their conditions may differ. Like-named read-outs stand apart in the source and are kept apart here.
# Assays:
# [1] = tested on: dHepaRG cells; assay: Lactate dehydrogenase (LDH) leakage; assay type: cell-based, human; details: dHepaRG cell viability, read-out: IC50 ± SD, LDH
# Experimental: Cryopreserved HepaRG cells were obtained from Biopredic International (Rennes, France). Undifferentiated cells were seeded according to the supplier protocols in 96-well plates for the viability assays, and in 6-well plates for the mRNA and western blot measurements. The cells were cultured for two weeks in Williams E Medium with GlutaMAX™ (Invitrogen, Paisley, UK) supplemented with 10% fetal bovine serum, 2 mM glutamine, 100 IU/mL penicillin, 100 μg/mL streptomycin, 5 μg/mL insulin, and 50 μM hydrocortisone hemisuccinate. The cells were afterwards cultured for another 2-week period in the same medium supplemented with 1.7% DMSO. The medium was replaced every 2–3 days.
# Lactate dehydrogenase (LDH) leakage was measured using the Invitrogen™ CyQUANT™ LDH Cytotoxicity Assay Kit according to the manufacturer guidelines using 96-well plates. After 24 and 72-h exposure, the culture medium was collected and diluted ten times by distilled water. Fifty µL of reaction mixture was added to each sample well and mixed. After 30 min of incubation at room temperature, 50 µL of stop solution was added to each well. To determine LDH activity, 680-nm absorbance value (background) was subtracted from the 490-nm absorbance before calculation of % cytotoxicity. Cell lysate was set as 100% of the LDH leakage.
# [2] = tested on: dHepaRG cells; assay: ROS production (H2DCFDA probe); assay type: cell-based, human; details: for lowest measured concentration leading to oxidative stress: ROS production; for ROS production: various concentrations, 1, 6, 12 and 24 h, H2-DCFDA probe
# Experimental: The production of reactive oxygen species (ROS) was measured using 2′,7′-dichlorofluorescin diacetate probe (H2DCFDA). The cells were preincubated with 10 µM H2DCFDA for 30 min in the dark. Afterwards, the cells were washed with PBS and sesquiterpenes were added to a Hank’s Balanced Salt Solution (HBSS) buffer. Fluorescence was measured after 1, 6, 12, and 24 h with excitation and emission wavelengths of 490 nm and 530 nm, respectively, using the Tecan Infinite M200. Hydrogen peroxide (300 µM) served as a positive control.
# [3] = tested on: CYP19A1 mRNA; assay: RT-qPCR mRNA expression in dHepaRG cells; assay type: cell-based, human
# Experimental: Three concentrations were selected for each compound (non-toxic, non-toxic/slightly toxic and toxic). The cholesterol level of the dHepaRG cells was measured after a multiple exposure of the highest non-toxic concentrations of tested compounds. […] The expression changes of genes and proteins related to cholesterol metabolism were measured in both single and multiple exposure experiments.
# All treatments were performed in triplicates and every experiment was performed three times. The cells were washed twice with ice cold phosphate-buffered saline (PBS), scrapped and stored at −80 °C until use. Total RNA from cells was isolated using TriReagent according to the manufacturer’s instructions (Biotech, Prague, Czech Republic). The purified RNA was dissolved in 40 µL of diethyl pyrocarbonate (DEPC)-treated water (0.01% DEPC in HPLC water, autoclaved) and stored at −80 °C. The measurement of absorbance at 260 and 280 nm using the NanoDrop ND-1000 UV–VIS Spectrophotometer (Thermo Fisher Scientific, Pardubice, Czech Republic) was used to determine RNA yields and purity. Subsequently, the RNA (4 µg) was treated with 2 U of DNase I (New England Biolabs, Ipswich, MA, USA) in a final volume of 30 µL for 25 min at 37 °C, 1.5 µL of 0.1 M ethylenediaminetetraacetic acid was added and the DNAse was inactivated by heat (5 min at 75 °C). The solution was diluted to a concentration of 0.1 µg/µL. The DNAse treated RNA was stored at −80 °C until further analyses. The first strand cDNA was synthesized from 800 ng of total RNA and 1 µL of 50 µM random hexamers (Generi Biotech, Hradec Kralove, Czech Republic) using ProtoScript II reverse transcriptase (New England Biolabs, Ipswich, MA, USA). After the initial heat denaturation of total RNA (65 °C for 5 min), 4 µL of 5× ProtoScript II RT Reaction Buffer, 2 µL of 10× dithiothreitol (DTT), 2 µL of deoxynucleotide (dNTP) Mix 5 mM, 3.5 µL of H2O, and 0.5 µL of ProtoScript II 200 U/µL were added and mixed by pipetting. The reactions (20 µL) were incubated for 10 min at 25 °C, for 50 min at 42 °C, and for 5 min at 80 °C. The obtained cDNAs were diluted 1:6 by DEPC water. The qPCR analyses were carried out using QuantStudio 6 Flex (Applied Biosystems, Foster City, CA, USA) with SYBR green I (Xceed qPCR SG Mix, Institute of Applied Biotechnologies, Prague, Czech Republic) detection according to the manufacturer’s protocol. […] Fluorescence data were recorded at the end of each amplification step. Relative expression levels of the target genes were calculated as fold changes in triplicates for each group using the 2^−ΔΔCt method [28] by normalization to the geometric mean of the Ct values of Sdha and Ywhaz, which were used as reference genes.
# [4] = tested on: SCD mRNA; assay: RT-qPCR mRNA expression in dHepaRG cells; assay type: cell-based, human; details: single exposure, 6, 12 and 24 h
# Experimental: Three concentrations were selected for each compound (non-toxic, non-toxic/slightly toxic and toxic).
# All treatments were performed in triplicates and every experiment was performed three times. The cells were washed twice with ice cold phosphate-buffered saline (PBS), scrapped and stored at −80 °C until use. Total RNA from cells was isolated using TriReagent according to the manufacturer’s instructions (Biotech, Prague, Czech Republic). The purified RNA was dissolved in 40 µL of diethyl pyrocarbonate (DEPC)-treated water (0.01% DEPC in HPLC water, autoclaved) and stored at −80 °C. The measurement of absorbance at 260 and 280 nm using the NanoDrop ND-1000 UV–VIS Spectrophotometer (Thermo Fisher Scientific, Pardubice, Czech Republic) was used to determine RNA yields and purity. Subsequently, the RNA (4 µg) was treated with 2 U of DNase I (New England Biolabs, Ipswich, MA, USA) in a final volume of 30 µL for 25 min at 37 °C, 1.5 µL of 0.1 M ethylenediaminetetraacetic acid was added and the DNAse was inactivated by heat (5 min at 75 °C). […] Fluorescence data were recorded at the end of each amplification step. Relative expression levels of the target genes were calculated as fold changes in triplicates for each group using the 2^−ΔΔCt method [28] by normalization to the geometric mean of the Ct values of Sdha and Ywhaz, which were used as reference genes.
# [5] = tested on: dHepaRG cells; assay: Cholesterol level (Amplex Red Cholesterol Assay kit); assay type: cell-based, human; details: multiple exposure: four applications every 24 h, cells collected 12 h after the last; 30 μM ATL, 100 μM GER
# Experimental: The cholesterol content in the dHepaRG cells was tested using the Amplex Red Cholesterol Assay kit (Invitrogen) according to the manufacturer’s instructions and as per An et al.. The cells were collected 12 h after the last exposure of the tested compounds in a 4-day exposure with a medium change every 24 h. The cells were rinsed three times in PBS to eliminate residual growth medium. Whole cell extracts were prepared by 0.5 mL of RIPA lysis buffer (0.5% sodium deoxycholate, 0.1% SDS, 1% NP-40, 150 mM NaCl, 1 mM DTT, 50 mM Tris–HCl (pH = 7.4) and phenylmethanesulfonyl fluoride. Fluorescence was measured using a microplate reader (Tecan Infinite M200) at 530 nm excitation and 590 nm emission wavelengths. The total cholesterol (TC) content was determined by measuring the cholesterol concentration following digestion with cholesterol esterase (CE). To measure the free cholesterol (FC), CE was omitted from the assay. Three independent experiments were performed. The values obtained from a cholesterol standard curve were normalized to protein content, measured by a BCA assay.
# [6] = tested on: HepG2; details: HepG2, 24 h, read-out: Previously Reported IC50 Values (24 h), cited from earlier work
# [7] = tested on: U87; details: U87, 24 h, read-out: Previously Reported IC50 Values (24 h), cited from earlier work
smiles,measurement,setting,value
"C=C1C(=O)O[C@@H]2C[C@@]3(C)CCC[C@H](C)C3=C[C@H]12 [ATL, alantolactone]",IC50,[1]; 24 h single exposure,61.1 ± 1.8 µM
same,IC50,[1]; 72 h single exposure,57.8 ± 2 µM
same,lowest measured concentration leading to oxidative stress,[2],20 µM
same,ROS production,[2],significant time- and concentration-dependent enhancement of ROS production
same,CYP19A1 mRNA level,"[3]; 20 and 40 µM, all the studied intervals (6, 12, 24 h)",induced
same,SCD mRNA level,[4],significantly decreased
same,level of free cholesterol and esterified cholesterol,[5],no effect was observed
same,IC50,[6]; ref 9,33 µM
same,IC50,[6]; ref 35,7 µM
same,IC50,[6]; ref 36,30 µM
same,IC50,[7]; ref 10,20 µM
same,IC50,[7]; ref 34,33 µM
"CC(C)=C1C/C=C(\C)CC/C=C(\C)CC1=O [GER, germacrone]",IC50,[1]; 24 h single exposure,244 ± 15.5 µM
same,IC50,[1]; 72 h single exposure,234 ± 13.4 µM
same,lowest measured concentration leading to oxidative stress,[2],100 µM
same,ROS production,[2],significant time- and concentration-dependent enhancement of ROS production
same,CYP19A1 mRNA level,"[3]; 100 µM, 24-h exposure",induced the level by nearly two-fold; also recorded: significantly induced
same,CYP19A1 mRNA level,"[3]; both higher concentrations, 6- and 12-hour exposure",decreased
same,SCD mRNA level,[4],significantly decreased
same,level of free cholesterol and esterified cholesterol,[5],no effect was observed
same,IC50,[6]; ref 7,170 µM
same,IC50,[6]; ref 12,160 µM
same,IC50,[6]; ref 13,> 240 µM
same,IC50,[7]; ref 36,175 µM
